# Test results: patent US20250034151A1, “WEE1 INHIBITOR, PREPARATION THEREFOR, AND USE THEREOF” (JIANGSU TASLY DIYI PHARMACEUTICAL CO., LTD., priority 2022, published 2025)
# Tests used:
# [1] = system: H1299 cells; assay: Anti-proliferative effect on H1299 cells by Cell Titer-Glo; type: cell-based; conditions: Homo sapiens, NCI-H1299, 72 h, 3 days, read-out: H1299 (IC50, inhibition of proliferation in vitro)
# Method in brief: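 H1299 cells exposed to compound dilutions for 3 days at 37 °C, 5% CO2, final DMSO 0.2%. Viability read by CellTiter-Glo luminescence, normalised to untreated-cell (max) and medium (min) controls. IC50 from a variable-slope log(inhibitor) vs. response fit.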
# [2] = Pharmacokinetics on single dose in mice (intravenous and oral); type: in vivo, ICR mice; conditions: for F/%: Oral 10 mg/kg vs Intravenous 1 mg/kg; for AUC(0-t) / Cmax / MRT / half-life: male, ICR, mouse, plasma
# Procedure: 1. Experimental Aim: The present experiment aimed to obtain the pharmacokinetic profile of the subject compounds in ICR mice (both intravenous and oral) 3.1.2 Test System Species: SPF grade male ICR mice Body weight/weekly age: about 30 g 4. […] 4.2 Subjects Given (Route) Intravenous: 1 mg/kg in a volume of 5 mL/kg Gavage: 10 mg/kg in a volume of 10 mL/kg Ultrasound for 5 min before administration 4.3 Subject Preparation (Concentration) Intravenous: 0.2 mg/mL Gavage: 1 mg/mL Fast overnight before administration and feed four hours after administration. […] The blood samples were stored in a refrigerator at or below −20° C. for LC-MS/MS analysis. […] LC-MS/MS Analytical Detection Used 5. Data Processing The samples were detected for drug concentration at each time point by LC-MS/MS. Pharmacokinetic parameters terminal elimination half-life (t1/2), area under the curve (AUC), apparent volume of distribution (Vd), clearance (CL), mean residence time (MRT), and Cmax were calculated using the non-compartmental model of Phoenix WinNonlin 5.2. Bioavailability (F %) was directly from serum concentration results. Mean±standard deviation (X±SD) was used for blood concentration and pharmacokinetic parameters, etc. Specific testing and analytical methods were specified in the form of protocol revisions.
# [3] = system: MIA PaCa2 cells; assay: Anti-proliferative effect on MIA PaCa2 cells by Cell Titer-Glo; type: cell-based; conditions: Homo sapiens, MIA PaCa-2, 72 h, 3 days, read-out: MIA PaCa 2 (IC50, inhibition of proliferation in vitro)
# Method in brief: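 Cells exposed to graded compound concentrations for 3 days at 37° C, 5% CO2, final DMSO 0.2%; viability read by CellTiter-Glo luminescence. Inhibition normalised to untreated cells (max) and medium (min); IC50 fitted by variable-slope log(inhibitor)-response model.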
# [4] = Membrane permeability study (Caco-2); type: in vitro ADME; conditions: human; for Papp A→B at 90 min, 10 µM / Papp B→A at 90 min, 10 µM: pH 7.4, Caco-2, 10 μM; for Papp A→B at 90 min, 10 µM: apical to basolateral; for Papp B→A at 90 min, 10 µM: basolateral to apical
# Procedure: Caco-2 cells were purchased from the […] (Rockville, MD). The cell culture medium was modified Eagle's medium (MEM) containing 10% inactivated fetal bovine serum and 1% non-essential amino acids.
# The cells were incubated for 21-28 days after inoculation for transport experiments and the apparent permeability (Papp) of Lucifer Yellow was used to characterize and verify the compactness of the cell monolayer. […] A 10 μM working solution of the compound to be tested was added to the apical side and basolateral side of Caco-2 and incubated at 37° C. for 90 min. After the incubation, dilute the samples on the apical side and basolateral side, and the concentrations of compounds on the apical and basolateral sides were detected by LC-MS/MS, and the concentrations of the compounds were quantified by standard curve.
# [5] = Plasma protein binding (PPB), equilibrium dialysis; type: in vitro ADME; conditions: mouse plasma, 5 h dialysis
# Excerpt: 1. Experimental Procedure
# 2. Data Processing and Parameter Calculation
# [6] = molecular target: CYP3A4 (Homo sapiens, UniProt P08684); assay: in vitro; conditions: CYP3A4 enzyme, pH 7.4, probe BOMCC (0.01 mM)
# Chain of CYP3A4 (P08684 whole entry, species assumed): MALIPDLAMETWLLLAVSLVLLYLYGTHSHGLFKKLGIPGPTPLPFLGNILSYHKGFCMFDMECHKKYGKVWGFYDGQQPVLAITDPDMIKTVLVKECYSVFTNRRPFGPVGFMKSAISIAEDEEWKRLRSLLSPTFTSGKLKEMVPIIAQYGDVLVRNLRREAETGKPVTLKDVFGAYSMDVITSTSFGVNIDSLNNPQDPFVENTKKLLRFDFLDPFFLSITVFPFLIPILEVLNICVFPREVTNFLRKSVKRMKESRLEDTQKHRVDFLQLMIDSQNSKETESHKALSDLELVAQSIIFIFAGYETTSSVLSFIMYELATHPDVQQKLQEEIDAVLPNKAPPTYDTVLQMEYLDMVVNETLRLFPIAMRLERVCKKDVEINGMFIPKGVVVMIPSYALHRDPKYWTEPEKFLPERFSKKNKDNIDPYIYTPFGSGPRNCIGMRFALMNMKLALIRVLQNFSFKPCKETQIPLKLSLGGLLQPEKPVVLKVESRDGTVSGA
SMILES,IC50 [1] [nM],F/% [2] [%],"AUC(0-t) ([2]; Intravenous, 1 mg/kg) [ng·h/mL]","Cmax ([2]; Intravenous, 1 mg/kg) [ng/mL]","MRT ([2]; Intravenous, 1 mg/kg) [min]","half-life ([2]; Intravenous, 1 mg/kg) [min]","AUC(0-t) ([2]; Oral, 10 mg/kg) [ng·h/mL]","Cmax ([2]; Oral, 10 mg/kg) [ng/mL]","MRT ([2]; Oral, 10 mg/kg) [min]","half-life ([2]; Oral, 10 mg/kg) [min]",IC50 [3] [nM],"efflux ratio at 90 min, 10 µM ([4]; Caco-2, pH 7.4)","Papp A→B at 90 min, 10 µM [4] [×10⁻⁶ cm/s]","Papp B→A at 90 min, 10 µM [4] [×10⁻⁶ cm/s]","fraction unbound at 5 h, 1 µM [5]","inhibition at 30 min, 1 µM [6] [%]","inhibition at 30 min, 10 µM [6] [%]"
C=CCn1c(=O)c2cnc(Nc3ccc(N4CC5CC(C4)N5C)cc3)nc2n1-c1cccc(C(C)(C)O)n1 [Compound 27],100 to 1000,28.6,134,170,39.6,46.8,285,392,66,61.8,100 to 1000,17.4,3.07,53.5,0.141,,
C=CCn1c(=O)c2cnc(Nc3ccc(N4CCN(C)CC4)cc3)nc2n1-c1cccc(C(C)(C)O)n1 [AZD1775],100 to 1000,32,,250,,30,,,,,100 to 1000,,15.6,39.8,0.087,-14,-32.9
